According to patent publication US6939953B2, “Leukotriene receptor” (Schering Corporation, priority 1999, dated 2005):
Where two headings read alike, the source gives them in different places.

What was measured:
[1] = biological target: T1, SP9030 (human leukotriene receptor, SEQ ID NO: 2) (Homo sapiens, UniProt Q9NPC1); assay: Radioligand competition assay using ^3H-LTB4 as the label on membranes of COS-7 cells transfected with SP9030 cDNA; format: binding; settings: for Affinity of the receptor for the ligand (in words): summary statement; for Ki: read-out: Ki (competition with ^3H-LTB4)
T1 construct: The ORF of SP9030 was cloned in the expression vector pCR3.1 (pCR3.1-SP9030); expressed in transfected cells; host or cells: COS-7 cells (membranes)
T1 sequence (Q9NPC1 1-358): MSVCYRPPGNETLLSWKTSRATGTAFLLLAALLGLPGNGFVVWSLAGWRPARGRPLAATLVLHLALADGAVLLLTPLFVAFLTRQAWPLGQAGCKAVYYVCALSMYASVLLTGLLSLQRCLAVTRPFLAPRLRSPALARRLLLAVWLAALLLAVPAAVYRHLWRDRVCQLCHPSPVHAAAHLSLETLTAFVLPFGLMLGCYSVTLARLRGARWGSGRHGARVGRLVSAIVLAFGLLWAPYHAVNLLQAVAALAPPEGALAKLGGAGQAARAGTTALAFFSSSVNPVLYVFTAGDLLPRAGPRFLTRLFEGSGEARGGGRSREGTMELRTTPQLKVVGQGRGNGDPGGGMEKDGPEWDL
Description: COS-7 cells, grown in DMEM/10% FCS until 80-90% confluence, were transfected with SuperFect agent (Giagene) at 20 μg DNA/150 mm plate. Forty eight hours after transfection, medium was changed to Opti-MEM or DMEM/Opti-MEM(1:1)/5% FCS. Cells were harvested 72 hours after transfection and membranes from the cells were prepared as follows. The cells were washed with 20 ml PBS without Ca^2+/Mg^2+ and incubated with 10 ml […] Hepes pH 7.4, 0.5 mM PMSF, 20 μg/ml aprotinin. The cells were scraped off the plate and vortexed. The cell suspension was then centrifuged at 13,000 g at 4° C. for 15 min. The pellets were re-suspended in 1.8 ml 50 mM Tris-Cl, pH 7.5 and vortexed. The membranes were homogenized with a 23-gauge needle. The protein concentration of the membrane preparations was determined with the BCA agents (Pierce).
Radioligand binding assays were performed to test the ability of SP9030, when expressed in cultured cells, to bind ^3H-labeled leukotriene. The ORF of SP9030 was cloned in the expression vector pCR3.1 (pCR3.1-SP9030). COS-7 cells were transfected with pCR3.1-SP9030 or pCR3.1 alone (mock transfection). Two days after transfection, the normal growth medium DMEM/10% FCS was replaced by either Opti-MEM or DMEM-Opti-MEM/5% FCS. The cells were allowed to grow one more day and then membranes were prepared for use in binding assay.
The reactions were incubated for 1 hour at 4° C. while rotated slowly. Multiscreen FB filters (Millipore) pre-soaked with 50 μl binding assay buffer for 1 hour at room temperature were used to filter the binding assays and the filters were washed twice with 100 μl 50 mM TrisCl, pH 7.5 (ice cold). Fifty microliters of scintillation fluid was added to the filters and counted to detect the bound radioligands. For radioligand competition assays, 160 μl binding assay buffer containing appropriate membranes were mixed with 20 μl of binding assay buffer containing 6% DMSO (v/v) and various concentrations of competing compounds. […] The final concentration of radioligand was 0.25 nM. Incubation conditions were the same as that used for the above described saturation assays.
COS-7 cells transfected with SP9030 cDNA were harvested three days after transfection and membrane prepared from cells used for binding assays.

[2] = tested on: 293-EBNA cells mock transfected without SP9030 cDNA; assay: Intracellular Ca2+ flux measurement (FLIPR) in mock transfected 293-EBNA cells; format: cell-based
Description: (§1) 293-EBNA cells, grown in DMEM containing 10% FCS until 80-90% confluence, were transfected with SuperFect transfection agent. The next day, cells were trypsinized off culture plates and washed with PBS lacking Ca^2+/Mg^2+. The cells were then seeded at a density of 35,000 cells per 100 μl medium) into 96-well plates that were pre-coated with poly-D-lysine (Becton Dickinson). The third day following transfection, medium was removed from cells and 100 μl Hank's balanced salt solution (lacking phenol red) containing 4 μM of Fluo-3, AM (Molecular Probes), 20 mM Hepes, pH 7.4, 0.1% (w/v) BSA and […] added and subsequently incubated at 37° C., 5% CO2 for 1 hour. The cells were then washed three times with 150 μl wash buffer containing HANK's BSS, 40 mM Hepes, pH 7.4 and […]. One hundred μl of the wash buffer was added after the final wash and Ca^2+ flux was measured after addition of 40 μl of wash buffer containing appropriate concentration of ligands. The FLIPR instrument (Molecular Device) was used in the measurement of Ca^2+ flux.
(§2) Intracellular function that the SP9030 receptor may mediate through activation by its ligand was examined in measurements of intracellular Ca^2+ flux.

[3] = biological target: T2, SP9030 expressed in 293-EBNA cells (Homo sapiens, UniProt Q9NPC1); assay: Intracellular Ca2+ flux measurement (FLIPR) in 293-EBNA cells expressing SP9030; format: cell-based; settings: 293-EBNA cells transfected with SP9030, Fluo-3, FLIPR
T2 construct: expressed in transfected cells; host or cells: 293-EBNA cells
T2 sequence (Q9NPC1 1-358): T1 sequence (Q9NPC1 1-358)
Description: as §1, §2

SMILES | Affinity of the receptor for the ligand (in words) [1] | Ca2+ response to incubation with ligand [2] | Cellular Ca2+ release [3] | Ki ([1]; 0.25 nM ^3H-LTB4, Ki=EC50/(1+[^3H-LTB4]/Kd), Kd […]) [nM] | Ki [1] [nM]
CCCCC[C@H](O)/C=C/C=C\C/C=C\C/C=C\CCCC(=O)O [15(5)-OH-5z, 8z, 11z, 13e)-eicosatetraenoic acid] | high affinity | – | – | – | –
CCCCC/C=C\C[C@@H](O)/C=C/C=C/C=C\[C@@H](O)CCCC(=O)O [LTB4, leukotriene B4] | high affinity | did not respond | activated cellular Ca^2+ release | – | –
CC/C=C\C/C=C\C[C@@H](O)/C=C/C=C/C=C\[C@@H](O)CCCC(=O)O [LTB5, leukotriene B5] | high affinity | – | – | 8.6 ± 5.3 | –
CCCCC[C@H](O)/C=C/C=C\C=C\C=C\[C@@H](O)[C@@H](O)CCCC(=O)O [lipoxin A4] | high affinity | – | – | – | 112 ± 40
